Laboratory results taken from patent US20070021380A1, “Novel drug delivery compositions” (priority 2005, published 2007).
Values after ≈ are worked out from the molar mass of the structure shown.

System: HBV
Assay: Anti-viral activity: viral DNA by Q-PCR in tetracycline-responsive HepAD38 cells
Format: cell-based
Conditions: for EC50: HepAD38 cells, viral DNA at day 4 post-induction, Q-PCR; for Improvement Compared to araA: therapeutic effect relative to araA (=1.00)
Description: Tetracycline-responsive cell lines HepAD38 were used (Ladner et al., 1997), hepatoma cells that have been stably transfected with a cDNA copy of the pregenomic RNA of wild-type virus. Withdrawal of tetracycline from the culture medium results in the initiation of viral replication. Cells were cultured at 37° C. in a humidified 5% CO2/air atmosphere in seeding medium, DMEM/Ham's F12 (50/50) supplemented with 10% (v/v) heat-inactivated fetal calf serum, 100 IU/ml penicillin/50 μg/ml streptomycin mix, 400 μg/ml G418, and 0.3 μg/ml tetracycline.
Upon assay initiation, the cells were seeded in 48-well plates at a density of 1.5×10^5/well. After 2-3 days the cultures were induced for viral production by washing with prewarmed PBS and were fed with 200 μl assay medium (seeding medium without tetracycline and G418) with or without the antiviral compounds. Medium was changed after 3 days. The antiviral effect was quantified by measuring levels of viral DNA [isolated (Qiagen) from the cell cultures] at day 4 post-induction, by a real time quantitative PCR (Q-PCR) and analyzed using a SDS 7000 (Applied Biosystems, Foster City, Calif.).
A plasmid containing the full length insert of the HBV genome was used to prepare the standard curve. The amount of viral DNA produced in treated cultures was expressed as a percentage of the mock treated samples. The cytostatic effect of the various compounds was assessed employing the parent hepatoma cell line HepG2. The effect of the compounds on exponentially growing HepG2 cells was evaluated by means of the MTS method (Promega). Briefly, cells were seeded at a density of 3000/well (96 well plate) and were allowed to proliferate for 3 days in the absence or presence of compounds after which time cell density was determined.

Row | SMILES | EC50 | Improvement Compared to araA
1 | Nc1ncnc2c1ncn2[C@@H]1O[C@H](COP(=O)(O)O)[C@@H](O)[C@@H]1O [araAMP, araA-monophosphate] | 33 µg/mL (≈ 95 µM) | 1.35
2 | Nc1ncnc2c1ncn2[C@@H]1O[C@H](CO)[C@@H](O)[C@@H]1O [araA] | 35 µg/mL (≈ 131 µM) | 1.00
